Values quoted from earlier work in patent US6465194B2, “Monoclonal antibodies to 4,4′-dinitrocarbanilide and a method for analyzing for the drug nicarbazin” (The United States of America as represented by the …, priority 1999, dated 2002).

Columns and labels:
[1] = chickens; Porter and Gilfilan, 1955
Eimeria tenella = details: Cuckler et al., 1955

O=C(Nc1ccc([N+](=O)[O-])cc1)Nc1ccc([N+](=O)[O-])cc1 [DNC, 4,4′-dinitrocarbanilide]
excretion rate [1]: more slowly than HDP

Cc1cc(C)nc(O)n1.O=C(Nc1ccc([N+](=O)[O-])cc1)Nc1ccc([N+](=O)[O-])cc1 [DNC-HDP]
potency in the control of Eimeria tenella relative to DNC by itself (Eimeria tenella; complex versus DNC alone): ten

Cc1cc(C)nc(O)n1 [HDP, 2-hydroxy-4,6-dimethylpyrimidine]
anticoccidial activity (Eimeria tenella; used alone): no anticoccidial activity
